Read-outs that look alike come from different tables or passages of the source.
Columns and labels:
[1] = Pharmacokinetic study of standard-dose acute gout regimen 4.8 mg over 6 hours (Example 6); settings: for Cmax / Tmax / half-life: human, in vivo, 4.8 mg
Method: This study was a single center, randomized, double-blind, double-dummy pharmacokinetic and exploratory ECG safety study.
Those randomized to moxifloxacin received 1×400 mg tablet.

clinical = settings: human, plasma, oral, 1.8 mg, N = 13; for Cmax: low-dose regimen 1.8 mg (2 x 0.6 mg, then 0.6 mg 1 hour later), fasting healthy adults; for Tmax / half-life: low-dose regimen 1.8 mg, healthy adults; for Tmax: time after the initial dose
Method: This study was a single-center, single-period, open-label pharmacokinetic study conducted in healthy subjects under fasting conditions.
Subjects received 2×0.6 mg tablets initially followed by 1×0.6 mg tablet 1 hour later.

[2] = standard-dose regimen 4.8 mg over 6 hours, healthy adults, N = 15
[3] = standard-dose regimen 4.8 mg over 6 hours, time after the initial dose, healthy adults, N = 15
[4] = low-dose regimen 1.8 mg (2 x 0.6 mg, then 0.6 mg 1 hour later), fasting healthy adults, N = 13
[5] = low-dose regimen 1.8 mg, healthy adults, N = 13
[6] = low-dose regimen 1.8 mg, time after the initial dose, healthy adults, N = 13

COc1cc2c(c(OC)c1OC)-c1ccc(OC)c(=O)cc1[C@@H](NC(C)=O)CC2 [Colchicine, (−)-N-[(7S,12aS)-1,2,3,10-tetramethoxy-9-oxo-5,6,7,9-tetrahydrobenzo[a]heptalen-7-yl]-acetamide]
Cmax ([1]; MEAN, standard-dose regimen 4.8 mg over 6 hours, healthy adults, N = 15): 6.8 ng/mL | Cmax ([1]; MEDIAN, standard-dose regimen 4.8 mg over 6 hours, healthy adults, N = 15): 6.69 ng/mL | Tmax ([1]; MEAN, standard-dose regimen 4.8 mg over 6 hours, time after the initial dose, healthy adults, N = 15): ~4.5 h | Tmax ([1]; MEDIAN, standard-dose regimen 4.8 mg over 6 hours, time after the initial dose, healthy adults, N = 15): 3.12 h | half-life ([1]; t1/2, MEAN, standard-dose regimen 4.8 mg over 6 hours, healthy adults, N = 15): 31.4 h | half-life ([1]; t1/2, MEDIAN, standard-dose regimen 4.8 mg over 6 hours, healthy adults, N = 15): 32.8 h | CL/F, MAX [1, 2]: 78287.41 mL/h | CL/F, MEAN [1, 2]: 43168.87 mL/h | CL/F, MEDIAN [1, 2]: 37954.71 mL/h | CL/F, MIN [1, 2]: 31386.01 mL/h | Cmax, MAX [1, 2]: 8.60 ng/mL | Cmax, MEAN [1, 2]: 6.84 ng/mL | Cmax, MIN [1, 2]: 4.95 ng/mL | Kel, MAX [1, 2]: 0.0461 h⁻¹ | Kel, MEAN [1, 2]: 0.0242 h⁻¹ | Kel, MEDIAN [1, 2]: 0.0212 h⁻¹ | Kel, MIN [1, 2]: 0.0147 h⁻¹ | Total AUC0-t, MAX [1, 2]: 138.24 ng·h/mL | Total AUC0-t, MEAN [1, 2]: 104.95 ng·h/mL | Total AUC0-t, MEDIAN [1, 2]: 113.12 ng·h/mL | Total AUC0-t, MIN [1, 2]: 53.74 ng·h/mL | Total AUC∞, MAX [1, 2]: 152.93 ng·h/mL | Total AUC∞, MEAN [1, 2]: 118.20 ng·h/mL | Total AUC∞, MEDIAN [1, 2]: 126.47 ng·h/mL | Total AUC∞, MIN [1, 2]: 61.31 ng·h/mL | Varea/F, MAX [1, 2]: 2639.21 L | Varea/F, MEAN [1, 2]: 1876.09 L | Varea/F, MEDIAN [1, 2]: 1902.14 L | Varea/F, MIN [1, 2]: 805.92 L | t1/2, MAX [1, 2]: 47.22 h | t1/2, MIN [1, 2]: 15.03 h | Tmax, MAX [1, 3]: 7.50 h | Tmax, MEAN [1, 3]: 4.47 h | Subjects with a secondary peak within 6 hours ([1]; standard-dose regimen 4.8 mg, 13 of 15 subjects): 87% | Cmax, MAX [4]: 11.37 ng/mL | Cmax, MIN [4]: 3.16 ng/mL | Maximum colchicine concentration (low-dose regimen 1.8 mg, healthy adults): 6.2 ng/mL | CL/F, MAX [5]: 52676.24 mL/h | CL/F, MEAN [5]: 36950.93 mL/h | CL/F, MEDIAN [5]: 35444.40 mL/h | CL/F, MIN [5]: 24295.73 mL/h | Kel, MAX [5]: 0.0502 h⁻¹ | Kel, MEAN [5]: 0.0326 h⁻¹ | Kel, MEDIAN [5]: 0.0322 h⁻¹ | Kel, MIN [5]: 0.0141 h⁻¹ | Total AUC0-t, MAX [5]: 58.93199 ng·h/mL | Total AUC0-t, MEAN [5]: 43.78755 ng·h/mL | Total AUC0-t, MEDIAN [5]: 43.94215 ng·h/mL | Total AUC0-t, MIN [5]: 28.82145 ng·h/mL | Total AUC∞, MAX [5]: 74.08708 ng·h/mL | Total AUC∞, MEAN [5]: 52.07006 ng·h/mL | Total AUC∞, MEDIAN [5]: 50.78377 ng·h/mL | Total AUC∞, MIN [5]: 34.171 ng·h/mL | Varea/F, MAX [5]: 1724.36 L | Varea/F, MEAN [5]: 1188.72 L | Varea/F, MEDIAN [5]: 1149.35 L | Varea/F, MIN [5]: 774.19 L | t1/2, MAX [5]: 49.20 h | t1/2, MEAN [5]: 23.63 h | t1/2, MIN [5]: 13.80 h | Tmax, MAX [6]: 2.50 h | Tmax, MIN [6]: 1.00 h | Subjects with a secondary peak within 6 hours after the first dose (low-dose regimen 1.8 mg, 10 of 13 subjects): 77% | Cmax (clinical; MEAN): 6.19 ng/mL | Cmax (clinical; MEDIAN): 5.68 ng/mL | Tmax (clinical; MEAN): 1.81 h | Tmax (clinical; MEDIAN): 2 h | half-life (clinical; t1/2, MEAN): 23.6 h | half-life (clinical; t1/2, MEDIAN): 21.6 h

From patent publication US7964647B2 (Mutual Pharmaceutical Company, Inc., priority 2007, dated 2011)
